According to article PMC9500072, “Topical application of an irreversible small molecule inhibitor of lysyl oxidases ameliorates skin scarring and fibrosis” (Nature Communications, 2022):
pIC50: −log10 of the molar value. Like-named read-outs stand apart in the source and are kept apart here.

Legend:
Type in all cases: biochemical
[1] = target: T1, recombinant human LOXL4 (Homo sapiens, UniProt Q96JB6); experiment: Amplex Red oxidation assay, LOXL4 inhibition; settings: for pIC50: 30 min pre-incubation, read-out: rh LOXL4 IC50; for IC50: read-out: Human Recombinant LOXL4 pIC50±SD (converted)
T1 construct: Dr. Fernando Rodríguez Pascual, university of Madrid, Spain (academic provider)
T1 sequence (Q96JB6 25-756): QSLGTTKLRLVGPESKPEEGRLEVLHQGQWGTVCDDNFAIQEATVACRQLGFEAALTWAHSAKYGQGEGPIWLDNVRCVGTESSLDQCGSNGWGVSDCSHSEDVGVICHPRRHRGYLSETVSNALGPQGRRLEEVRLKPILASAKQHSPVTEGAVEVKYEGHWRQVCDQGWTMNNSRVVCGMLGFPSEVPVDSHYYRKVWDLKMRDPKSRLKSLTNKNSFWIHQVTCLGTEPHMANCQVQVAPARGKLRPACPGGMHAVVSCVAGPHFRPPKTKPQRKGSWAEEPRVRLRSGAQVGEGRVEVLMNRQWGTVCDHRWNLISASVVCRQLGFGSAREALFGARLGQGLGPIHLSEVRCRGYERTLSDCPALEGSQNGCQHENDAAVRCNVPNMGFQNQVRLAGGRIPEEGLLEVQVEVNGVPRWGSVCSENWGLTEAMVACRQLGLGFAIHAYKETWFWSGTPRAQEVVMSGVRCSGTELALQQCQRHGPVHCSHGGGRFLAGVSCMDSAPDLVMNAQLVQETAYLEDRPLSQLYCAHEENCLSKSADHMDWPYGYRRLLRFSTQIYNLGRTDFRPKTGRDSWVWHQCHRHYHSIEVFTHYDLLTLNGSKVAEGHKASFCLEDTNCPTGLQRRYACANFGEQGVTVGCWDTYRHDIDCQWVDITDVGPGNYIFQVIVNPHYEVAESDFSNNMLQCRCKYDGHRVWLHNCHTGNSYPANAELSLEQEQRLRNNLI
Procedure: (§1) The measurement of the enzymatic activity of all lysyl oxidase family members was based on the detection of hydrogen peroxide with an Amplex-Red oxidation assay, as previously described; miniaturized in 384 well formats, with the appropriate combination of substrate and assay buffer for each individual enzyme. After a 30 min pre-incubation of the enzyme at 37 °C with the test compound (or with different incubation times for the time-dependency assay), one volume of reaction mixture containing 120 μM Amplex Red (AR) (Life Technologies), 1.5 U/mL horseradish peroxidase (HRP) (Sigma-Aldrich) and the specific substrate was added to each sample. The relative fluorescence units (RFU) were then measured every 2.5 min for 30 min at 37 °C, excitation 565 nm and emission 590, on a BMG Clariostar Microplate Reader. All the substrates were used at concentrations corresponding to their Km towards the corresponding enzyme, or with a range of different concentrations for the substrate competition experiments.
(§2) Lysyl oxidases assay buffer contained 1.2 M urea, 50 mM sodium borate buffer, pH 8.2 and 100 µM β-aminoproprionitrile (BAPN, Sigma-Aldrich) was used for low control.
Recombinant human LOXL1 was expressed and purified from cDNA (GeneArt) and 10 mM putrescine was used as substrate. Recombinant human and mouse LOXL2 (R&D Systems) were challenged with 5 mM putrescine (Sigma-Aldrich) as the substrate. Rat and dog recombinant LOXL2 were amplified and purified in house from HEK-293 clones kindly provided by Dr. Fernando Rodríguez Pascual, Madrid University, and used in the same conditions as for the human form. 2 mM putrescine was used as the substrate for recombinant human LOXL3 (R&D Systems) and LOXL4 (Dr. Fernando Rodríguez Pascual, university of Madrid, Spain) assays.

[2] = target: T2, Rat Fibroblast LOX (Rattus norvegicus, UniProt P16636); experiment: Amine oxidase inhibition profile, rat fibroblast LOX
T2 construct: Fibroblast LOX; endogenous in cells; host or cells: rat fibroblasts
T2 sequence (P16636 163-411): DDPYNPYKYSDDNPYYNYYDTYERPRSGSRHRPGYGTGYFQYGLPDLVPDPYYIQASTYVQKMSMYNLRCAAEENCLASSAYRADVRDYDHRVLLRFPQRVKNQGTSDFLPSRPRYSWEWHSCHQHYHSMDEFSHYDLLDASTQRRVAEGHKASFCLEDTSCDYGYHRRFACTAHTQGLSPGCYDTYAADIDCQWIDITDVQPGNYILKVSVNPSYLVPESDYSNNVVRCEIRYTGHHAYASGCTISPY
Procedure: as §1, §2
Supplem entary Materi als:
Supplementary Table S1: Amine oxidase inhibition profile of PXS -4787, PXS-6302 and
Supplementary Table S2: Perm eability profile of PXS -6302.

[3] = target: T3, Rat Recombinant LOXL2 (Rattus norvegicus, UniProt B5DF27); experiment: Amine oxidase inhibition profile, rat LOXL2
T3 construct: made in house; host or cells: HEK-293 clones (provided by Dr. Fernando Rodríguez Pascual)
T3 sequence (B5DF27 26-776): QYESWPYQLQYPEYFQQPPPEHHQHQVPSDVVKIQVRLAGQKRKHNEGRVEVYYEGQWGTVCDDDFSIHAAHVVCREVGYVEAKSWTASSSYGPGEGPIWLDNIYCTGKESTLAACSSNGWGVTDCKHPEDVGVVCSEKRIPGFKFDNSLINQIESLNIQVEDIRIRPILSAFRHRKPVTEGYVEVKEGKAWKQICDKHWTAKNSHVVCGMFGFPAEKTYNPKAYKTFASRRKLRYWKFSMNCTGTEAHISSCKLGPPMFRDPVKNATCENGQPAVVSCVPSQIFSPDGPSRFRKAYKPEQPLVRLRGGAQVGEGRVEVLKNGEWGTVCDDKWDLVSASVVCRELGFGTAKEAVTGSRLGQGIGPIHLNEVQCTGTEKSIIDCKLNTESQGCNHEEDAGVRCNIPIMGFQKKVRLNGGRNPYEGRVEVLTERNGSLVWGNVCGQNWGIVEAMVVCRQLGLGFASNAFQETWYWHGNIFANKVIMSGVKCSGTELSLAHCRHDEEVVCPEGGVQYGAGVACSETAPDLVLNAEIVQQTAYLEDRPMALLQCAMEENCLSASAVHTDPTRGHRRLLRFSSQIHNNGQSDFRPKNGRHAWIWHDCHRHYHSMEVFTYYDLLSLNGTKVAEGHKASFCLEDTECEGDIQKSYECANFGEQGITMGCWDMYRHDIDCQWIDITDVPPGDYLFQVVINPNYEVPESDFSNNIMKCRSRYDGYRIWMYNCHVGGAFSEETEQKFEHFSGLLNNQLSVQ

Compound | Human Recombinant LOXL4 pIC50±SD [1] | pIC50 [1] | pIC50 [2] | Rat Fibroblast LOX pIC50±SD [2] | pIC50 [3] | Rat Recombinant LOXL2 pIC50±SD [3] | inhibition at 30 µM ([1]; log conc -4.5229, read-out: Fig 2A inhibition (mean)) | inhibition at 10 µM ([1]; log conc -5, read-out: Fig 2A inhibition (mean)) | inhibition at 3.333 µM ([1]; log conc -5.4771, read-out: Fig 2A inhibition (mean)) | inhibition at 1.111 µM ([1]; log conc -5.9542, read-out: Fig 2A inhibition (mean)) | inhibition at 0.3704 µM ([1]; log conc -6.4313, read-out: Fig 2A inhibition (mean)) | inhibition at 0.1235 µM ([1]; log conc -6.9083, read-out: Fig 2A inhibition (mean)) | inhibition at 0.0412 µM ([1]; log conc -7.3851, read-out: Fig 2A inhibition (mean)) | inhibition at 0.0137 µM ([1]; log conc -7.8633, read-out: Fig 2A inhibition (mean)) | inhibition at 0.0046 µM ([1]; log conc -8.3372, read-out: Fig 2A inhibition (mean)) | inhibition at […] ([1]; log conc -8.8239, read-out: Fig 2A inhibition (mean)) | inhibition at 0.0005 µM ([1]; log conc -9.301, read-out: Fig 2A inhibition (mean)) | IC50 [1]
N#CCCN [BAPN, β-aminoproprionitrile, reference compound] | 6.6 ± 0.1 | 6.55 | 5.67 | 5.7 ± 0.1 | 6.19 | 6.2 ± 0.2 |  |  |  |  |  |  |  |  |  |  |  | 
NC/C=C(\F)CS(=O)(=O)c1ccccc1 [PXS-4787] |  | 6.66 | 5.34 |  | 6.23 |  | 102% | 101% | 98.6% | 89.8% | 66.3% | 36.5% | 14.1% | 8.84% | 2.39% | 0.738% | -0.645% | 200 nM
NC/C=C(\F)C(F)(F)S(=O)(=O)c1ccccc1 [PXS-6302] |  | 6.49 | 5.07 |  | 6.37 |  |  |  |  |  |  |  |  |  |  |  |  | 316 nM
